According to US20050058600A1, “3,3'-Diindolylmethane antiandrogenic compositions” (priority 2003, published 2005):

Experiments:
[1] = tested on: skin surrounding the flank organ of the male Syrian hamster; experiment: Androgen-induced delay of hair growth in the Golden Syrian hamster; type: in vivo
Experimental: Mature male golden Syrian hamsters, 101-110 g, are obtained from Charles River Laboratories (Wilmington, Mass.). Pellet implant and blood drawing procedures are performed while animals are under general anaesthesia induced by isoflurane (Aerrane®, Fort Dodge Animal Health, Overland Park, Kans.). Testosterone propionate (TP) is administered in the form of 25 mg dose time-release pellets (Inovative Research of America, Toledo, Ohio). Antiandrogenic DIM derivatives (Example II, supra) are coadministered in parallel 25 mg dose time-release pellets. Control animals receive placebo pellets, which contain only carrier/binder excipients (cholesterol, lactose, celluloses, phosphates, and stearates).
Pellets are implanted subcutaneously. A skin incision is made with scissors on the upper dorsal side of the animal, equal in length to the pellet. A horizontal pocket is created with forceps about 2 cm beyond the incision site. Pellets are placed in the pocket with forceps, and incisions are then closed with a staple suture (Autoclip®, 9 mm, Stoelting Co., Wood Dale, Ill.). Immediately after pellet implantation, the fur on and around each flank organ is shaved with electric clippers. This is designated day 0 of the study. At day 7, the fur around the flank organ is re-clipped. […] On day 21 the surface diameters of the left and right flank organs (encompassed within the pigmented area) are measured with vernier callipers. […]
Sebaceous glands are evaluated in unstained whole mounts of ventral dermal sheets from the left ears. […] The gland areas are measured using an Optomax V image analysis system (Optomax, Hollis, N.H.). The percentage change in sebaceous gland size is calculated by comparing the testosterone-treated group with the placebo-treated group. Serum testosterone is measured by radioimmunoassay at an outside laboratory (AniLytics, Inc., Gaithersburg, Md.).
Hair growth is quantified using a visual grading system (0-3 scale, where 0=no growth, 3=full hair growth). […]

[2] = tested on: dimethylbenzanthracene (DMBA)-induced mammary tumors; settings: rats; cited from earlier work
[3] = tested on: benzo(a)pyrene (BP)-induced tumors of the forestomach; settings: mice; cited from earlier work
[4] = tested on: BP-induced pulmonary adenomas; settings: mice; cited from earlier work
[5] = tested on: breast cancer cells; settings: in culture; cited from earlier work
[6] = tested on: prostate cancer cells; settings: cited from earlier work

SMILES | size of the flank organ and the ear sebaceous glands ([1]; 25 mg TP dose, after 21 days) | hair growth grade (0-3 scale) ([1]; TP alone, day 14) | hair growth ([1]; TP alone, day 21) | incidence of DMBA-induced mammary tumors [2] | incidence of BP-induced tumors of the forestomach [3] | incidence of BP-induced pulmonary adenomas [4] | proliferation of breast cancer cells [5] | proliferation of prostate cancer cells [6]
CCC(=O)O[C@H]1CC[C@H]2[C@@H]3CCC4=CC(=O)CC[C@]4(C)[C@H]3CC[C@]12C [TP, Testosterone propionate] | marked increase | 0 | insignificant | – | – | – | – | –
OCc1c[nH]c2ccccc12 [I3C, indole-3-carbinol, reference compound] | – | – | – | reduced the incidence | reduced the incidence | reduced the incidence | inhibit proliferation | inhibit proliferation
